Data taken from ChEMBL document CHEMBL4118288, “Antiplasmodial activity of hydroxyethylamine analogs: Synthesis, biological activity and structure activity relationship of plasmepsin inhibitors” (Bioorg Med Chem, 2018).
One block for each compound: values may come before it.

Key:
Plasmodium falciparum = assay: Antiplasmodial activity against chloroquine-susceptible blood forms of Plasmodium falciparum 3D7 infected in human erythrocytes measured after 48 hrs by SYBR green1 staining based fluorescence assay; format: functional, organism-based; conditions: 3D7, 48 h
[1] = Therapeutic index, ratio of IC50 for human HepG2 cells to IC50 for chloroquine-susceptible blood forms of Plasmodium falciparum 3D7 infected in human erythrocytes; format: toxicity, cell-based; conditions: read-out: Ratio IC50
Plasmepsin II = Plasmepsin II (Plasmodium falciparum, UniProt P46925); assay: (§1) Inhibition of Plasmodium falciparum Plm2 using synthetic substrate pretreated for 5 mins followed by substrate addition measured immediately by spectrophotometric method
[2] = target: Plasmepsin II (Plasmodium falciparum) (UniProt P46925); assay: as §1
[3] = target: Plasmepsin II (Plasmodium falciparum) (UniProt P46925); assay: Inhibition of Plasmodium falciparum Plm2 at 10 uM using synthetic substrate pretreated for 5 mins followed by substrate addition measured immediately by spectrophotometric method relative to control
Vero = assay: Cytotoxicity against African green monkey Vero cells after 48 hrs by MTT assay; format: cell-based; conditions: Chlorocebus sabaeus
Plasmepsin 4 = Plasmepsin 4 (Plasmodium falciparum, UniProt Q17SB2); assay: (§2) Inhibition of Plasmodium falciparum Plm4 using synthetic substrate pretreated for 5 mins followed by substrate addition measured immediately by spectrophotometric method
[4] = target: Plasmepsin 4 (Plasmodium falciparum) (UniProt Q17SB2); assay: as §2
[5] = Therapeutic index, ratio of IC50 for African green monkey Vero cells to IC50 for chloroquine-susceptible blood forms of Plasmodium falciparum 3D7 infected in human erythrocytes; format: toxicity, cell-based; conditions: read-out: Ratio IC50
HepG2 = assay: Cytotoxicity against human HepG2 cells after 48 hrs by MTT assay; format: cell-based; conditions: HepG2, 48 h
[6] = target: Plasmepsin 4 (Plasmodium falciparum) (UniProt Q17SB2); assay: Inhibition of Plasmodium falciparum Plm4 at 10 uM using synthetic substrate pretreated for 5 mins followed by substrate addition measured immediately by spectrophotometric method relative to control

Sequence of Plasmepsin II (Plasmodium falciparum) (P46925 125-453 limits assumed): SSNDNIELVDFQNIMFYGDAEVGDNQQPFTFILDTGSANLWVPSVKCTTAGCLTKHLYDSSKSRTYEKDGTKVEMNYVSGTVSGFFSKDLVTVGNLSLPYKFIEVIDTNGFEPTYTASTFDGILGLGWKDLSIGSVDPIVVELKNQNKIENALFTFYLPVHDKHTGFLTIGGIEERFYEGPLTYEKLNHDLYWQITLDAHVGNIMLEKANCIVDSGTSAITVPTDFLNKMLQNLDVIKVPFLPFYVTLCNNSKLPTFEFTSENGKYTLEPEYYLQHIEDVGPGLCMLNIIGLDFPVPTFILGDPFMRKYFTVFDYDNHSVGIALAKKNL
Sequence of Plasmepsin 4 (Plasmodium falciparum) (Q17SB2 1-448): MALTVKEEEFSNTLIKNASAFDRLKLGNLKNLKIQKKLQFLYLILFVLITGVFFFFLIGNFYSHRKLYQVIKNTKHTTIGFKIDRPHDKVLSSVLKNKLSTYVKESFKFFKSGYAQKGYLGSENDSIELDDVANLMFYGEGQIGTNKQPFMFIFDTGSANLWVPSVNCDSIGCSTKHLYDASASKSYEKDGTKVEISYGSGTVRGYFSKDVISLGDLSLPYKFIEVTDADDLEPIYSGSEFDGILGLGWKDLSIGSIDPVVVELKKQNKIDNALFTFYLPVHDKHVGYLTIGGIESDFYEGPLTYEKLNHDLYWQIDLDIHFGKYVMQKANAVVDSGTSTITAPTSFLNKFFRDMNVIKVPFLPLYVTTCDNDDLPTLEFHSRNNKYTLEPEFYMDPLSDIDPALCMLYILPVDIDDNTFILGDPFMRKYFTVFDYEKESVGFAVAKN
Sequence of Plasmepsin 4 (Q17SB2 whole entry): as the sequence (Q17SB2 1-448) above
Sequence of Plasmepsin II (P46925 whole entry): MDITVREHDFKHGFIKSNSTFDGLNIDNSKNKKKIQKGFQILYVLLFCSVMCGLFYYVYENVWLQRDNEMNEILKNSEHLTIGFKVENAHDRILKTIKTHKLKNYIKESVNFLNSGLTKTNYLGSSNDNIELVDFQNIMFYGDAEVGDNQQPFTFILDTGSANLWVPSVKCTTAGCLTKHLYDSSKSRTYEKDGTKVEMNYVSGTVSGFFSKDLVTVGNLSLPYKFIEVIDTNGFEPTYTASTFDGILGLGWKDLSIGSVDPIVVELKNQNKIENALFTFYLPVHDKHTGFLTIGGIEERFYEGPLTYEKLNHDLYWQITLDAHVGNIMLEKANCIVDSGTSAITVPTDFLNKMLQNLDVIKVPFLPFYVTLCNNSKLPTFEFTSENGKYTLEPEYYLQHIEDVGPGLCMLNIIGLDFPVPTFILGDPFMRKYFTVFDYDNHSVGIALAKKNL

Structure (SMILES): Cc1ccc2c(c1)C(=O)N([C@@H](CC(C)C)C(=O)NC(Cc1ccccc1)C(O)CN1CCN(C[C@@H](O)[C@H](Cc3ccccc3)NC(=O)[C@H](CC(C)C)N3C(=O)c4ccc(C)cc4C3=O)CC1)C2=O (single isomer, unassigned)
selectivity ratio [1]: > 10
Ki (Plasmepsin II): 1.92 µM
inhibition [2]: Dose-dependent effect
inhibition [3]: > 50%
IC50 (Plasmodium falciparum): 2.27 µM
IC50 (Vero): 60 µM
Ki (Plasmepsin 4): 1.98 µM
inhibition [4]: Dose-dependent effect
selectivity ratio [5]: > 10
IC50 (HepG2): 27 µM
inhibition [6]: > 50%

Structure (SMILES): C[C@@H]1CC[C@H]2[C@@H](C)C(=O)O[C@@H]3O[C@@]4(C)CC[C@@H]1[C@]32OO4 [ARTEMISININ]
IC50 (Plasmodium falciparum): 0.074 µM

Structure (SMILES): CC(C)(C)OC(=O)NCC(=O)NC(Cc1ccccc1)C(O)CN1CCN(C[C@@H](O)[C@H](Cc2ccccc2)NC(=O)CNC(=O)OC(C)(C)C)CC1 (single isomer, unassigned)
IC50 (Plasmodium falciparum): 8.6 µM

Structure (SMILES): Cc1ccc2c(c1)C(=O)N(CC(=O)N[C@@H](Cc1ccccc1)[C@H](O)CN1CCN(C[C@H](O)[C@@H](Cc3ccccc3)NC(=O)CN3C(=O)c4ccc(C)cc4C3=O)CC1)C2=O
inhibition [2]: Dose-dependent effect
inhibition [3]: > 50%
IC50 (Plasmodium falciparum): 10.8 µM
Ki (Plasmepsin 4): 3.35 µM
inhibition [4]: Dose-dependent effect
inhibition [6]: > 50%

Structure (SMILES): Cc1ccc2c(c1)C(=O)N([C@@H](C)C(=O)NC(Cc1ccccc1)C(O)CN1CCN(C[C@@H](O)[C@H](Cc3ccccc3)NC(=O)[C@H](C)N3C(=O)c4ccc(C)cc4C3=O)CC1)C2=O (single isomer, unassigned)
IC50 (Plasmodium falciparum): 19 µM

Structure (SMILES): O=C(CN1C(=O)c2ccccc2C1=O)NC(Cc1ccccc1)C(O)CN1CCN(C[C@@H](O)[C@H](Cc2ccccc2)NC(=O)CN2C(=O)c3ccccc3C2=O)CC1 (single isomer, unassigned)
IC50 (Plasmodium falciparum): 20.3 µM

Structure (SMILES): CC[C@H](C)[C@@H](C(=O)N[C@@H](Cc1ccccc1)[C@H](O)CN1CCN(C[C@@H](O)[C@H](Cc2ccccc2)NC(=O)[C@H]([C@@H](C)CC)N2C(=O)c3ccc(C)cc3C2=O)CC1)N1C(=O)c2ccc(C)cc2C1=O
inhibition [2]: Dose-dependent effect
inhibition [3]: > 50%
IC50 (Plasmodium falciparum): 3.11 µM
Ki (Plasmepsin 4): 0.841 µM
inhibition [4]: Dose-dependent effect
inhibition [6]: > 50%

Continued, in another order:

IC50 (Plasmodium falciparum): 7.6 µM
Structure (SMILES): C[C@@H](C(=O)NC(Cc1ccccc1)C(O)CN1CCN(C[C@@H](O)[C@H](Cc2ccccc2)NC(=O)[C@H](C)N2C(=O)c3ccccc3C2=O)CC1)N1C(=O)c2ccccc2C1=O (single isomer, unassigned)

IC50 (Plasmodium falciparum): 3.47 µM
Structure (SMILES): N[C@@H](Cc1ccccc1)[C@H](O)CN1CCN(C[C@@H](O)[C@@H](N)Cc2ccccc2)CC1

IC50 (Plasmodium falciparum): 2.26 µM
Structure (SMILES): Cc1ccc2c(c1)C(=O)N([C@H](C(=O)NC(Cc1ccccc1)C(O)CN1CCN(C[C@@H](O)[C@H](Cc3ccccc3)NC(=O)[C@H](C(C)C)N3C(=O)c4ccc(C)cc4C3=O)CC1)C(C)C)C2=O (single isomer, unassigned)

IC50 (Plasmodium falciparum): 6.98 µM
Structure (SMILES): C[C@H](N)C(=O)NC(Cc1ccccc1)C(O)CN1CCN(C[C@@H](O)[C@H](Cc2ccccc2)NC(=O)[C@H](C)N)CC1 (single isomer, unassigned)

IC50 (Plasmodium falciparum): 8.28 µM
Structure (SMILES): C[C@H](NC(=O)OC(C)(C)C)C(=O)N[C@@H](Cc1ccccc1)[C@H](O)CN1CCN(C[C@H](O)[C@@H](Cc2ccccc2)NC(=O)[C@H](C)NC(=O)OC(C)(C)C)CC1

IC50 (Plasmodium falciparum): 2.72 µM
Structure (SMILES): CC(C)[C@H](N)C(=O)NC(Cc1ccccc1)C(O)CN1CCN(C[C@@H](O)[C@H](Cc2ccccc2)NC(=O)[C@@H](N)C(C)C)CC1 (single isomer, unassigned)

IC50 (Plasmodium falciparum): 4.38 µM
Structure (SMILES): CC(C)[C@H](NC(=O)OC(C)(C)C)C(=O)N[C@@H](Cc1ccccc1)[C@H](O)CN1CCN(C[C@H](O)[C@@H](Cc2ccccc2)NC(=O)[C@@H](NC(=O)OC(C)(C)C)C(C)C)CC1

IC50 (Plasmodium falciparum): 1.84 µM
Structure (SMILES): CC[C@H](C)[C@H](NC(=O)OC(C)(C)C)C(=O)N[C@@H](Cc1ccccc1)[C@H](O)CN1CCN(C[C@@H](O)[C@H](Cc2ccccc2)NC(=O)[C@@H](NC(=O)OC(C)(C)C)[C@@H](C)CC)CC1

IC50 (Plasmodium falciparum): 1.35 µM
Structure (SMILES): CC[C@H](C)[C@H](N)C(=O)N[C@@H](Cc1ccccc1)[C@H](O)CN1CCN(C[C@@H](O)[C@H](Cc2ccccc2)NC(=O)[C@@H](N)[C@@H](C)CC)CC1
selectivity ratio [1]: > 10
IC50 (Vero): > 156 µM
selectivity ratio [5]: > 10
IC50 (HepG2): 125 µM
